Consider one compound from patent US9487512B2, “(Hetero)aryl cyclopropylamine compounds as LSD1 inhibitors” (ORYZON GENOMICS, S.A., priority 2011, dated 2016).

For assay [1], the target named is Human recombinant LSD1 protein (Homo sapiens (Human), UniProt O60341). The assay is described as follows: Inhibition of LSD1 (Amplex Red H2O2 release, di-methylated H3-K4 peptide substrate).
The target of assay [2] is Human recombinant monoamine oxidase MAO-A (Homo sapiens (Human), UniProt P21397). The experiment in a line: Monoamine oxidase assay (kynuramine to 4-hydroxyquinoline fluorescence), MAO-A. It is filed as biochemical. An excerpt: (§1) Human recombinant monoamine oxidase proteins MAO-A and MAO-B were purchased from Sigma Aldrich. MAOs catalyze the oxidative deamination of primary, secondary and tertiary amines. In order to monitor MAO enzymatic activities and/or their inhibition rate by inhibitor(s) of interest, a fluorescence-based (inhibitor)-screening assay was set up. 3-(2-Aminophenyl)-3-oxopropanamine (kynuramine dihydrobromide, Sigma Aldrich), a non fluorescent compound was chosen as a substrate. Kynuramine is a non-specific substrate for both MAO-A and MAO-B activities. While undergoing oxidative deamination by MAO activities, kynuramine is converted into 4-hydroxyquinoline (4-HQ), a resulting fluorescent product.
(§2) The monoamine oxidase activity was estimated by measuring the conversion of kynuramine into 4-hydroxyquinoline. Assays were conducted in 96-well black plates with clear bottom (Corning) in a final volume of 100 μL. The assay buffer was 100 mM HEPES, pH 7.5. Each experiment was performed in duplicate within the same experiment.
(§3) Clorgyline and Deprenyl (Sigma Aldrich) was used as a control for specific inhibition of MAO-A and MAO-B respectively. […]
(§4) The IC50 values of each inhibitor were calculated with GraphPad Prism Software.

In assay [3] the target is Human recombinant monoamine oxidase MAO-B (Homo sapiens (Human), UniProt P27338). The assay is described as follows: Monoamine oxidase assay (kynuramine to 4-hydroxyquinoline fluorescence), MAO-B. Format: biochemical.
Text: as §1, §2, §3, §4

For orientation: IC50 means the concentration at which inhibition is half-maximal.

Human recombinant monoamine oxidase MAO-A, sequence (P21397 whole entry): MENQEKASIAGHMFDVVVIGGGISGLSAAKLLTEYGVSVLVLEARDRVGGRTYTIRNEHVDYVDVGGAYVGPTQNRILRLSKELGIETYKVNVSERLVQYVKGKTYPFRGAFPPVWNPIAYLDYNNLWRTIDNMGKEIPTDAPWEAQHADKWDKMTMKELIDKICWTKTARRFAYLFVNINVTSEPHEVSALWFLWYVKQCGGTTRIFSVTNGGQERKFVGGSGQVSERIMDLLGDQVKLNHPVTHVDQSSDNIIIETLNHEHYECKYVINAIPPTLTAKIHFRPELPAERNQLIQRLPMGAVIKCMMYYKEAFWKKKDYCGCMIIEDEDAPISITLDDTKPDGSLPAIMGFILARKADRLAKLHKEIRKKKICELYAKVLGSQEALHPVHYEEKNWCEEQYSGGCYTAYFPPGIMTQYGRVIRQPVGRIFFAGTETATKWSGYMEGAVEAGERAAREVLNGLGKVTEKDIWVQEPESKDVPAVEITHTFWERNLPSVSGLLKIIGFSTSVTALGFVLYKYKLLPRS
Human recombinant monoamine oxidase MAO-B, sequence (P27338 whole entry): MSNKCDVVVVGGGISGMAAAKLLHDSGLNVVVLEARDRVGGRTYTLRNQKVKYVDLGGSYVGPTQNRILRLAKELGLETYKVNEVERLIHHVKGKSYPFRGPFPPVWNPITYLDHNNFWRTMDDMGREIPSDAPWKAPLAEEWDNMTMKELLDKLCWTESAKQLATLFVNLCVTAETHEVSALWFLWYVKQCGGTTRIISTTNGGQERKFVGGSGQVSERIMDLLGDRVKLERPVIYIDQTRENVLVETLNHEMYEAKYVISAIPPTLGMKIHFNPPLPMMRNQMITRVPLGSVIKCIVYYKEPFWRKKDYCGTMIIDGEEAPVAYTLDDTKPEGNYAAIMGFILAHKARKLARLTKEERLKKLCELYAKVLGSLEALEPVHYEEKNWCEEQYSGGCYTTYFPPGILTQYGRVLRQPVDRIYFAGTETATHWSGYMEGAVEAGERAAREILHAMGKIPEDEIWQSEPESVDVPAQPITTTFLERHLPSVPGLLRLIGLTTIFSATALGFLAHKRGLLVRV

For the compound `Oc1ccc(C2CC2NC2CCNCC2)cc1` (stereo not drawn) [Example 23, 4-(2-(piperidin-4-ylamino)cyclopropyl)phenol], the IC50 was about 100 µM in assay [1], over 100 µM in assay [2] and over 100 µM in assay [3].
